Measurements published in US10538443B2, “Method of degradation and inactivation of antibiotics in water by immobilized enzymes onto functionalized supports” (Luxembourg Institute of Science and Technology (LIST), priority 2014, dated 2020).
Positions of bridges follow the written chain, without caps; N, C: chain ends. Non-standard residues stand in square brackets, D forms with d. Residues, ends and D or L forms follow the SMILES beside them. *: point of attachment. Ileψ(thiazoline)Cys = CC[C@H](C)[C@H](N)C1=N[C@H](C(=O)*)CS1; dOrn = NCCC[C@@H](N)C(=O)O

Tests used:
[1] = system: rat hepatoma cell line H4IIE.Luc; assay: Cytotoxicity test, Cell Viability Assay AlamarBlue; format: cell-based; details: amoxicillin 80 μg·mL^−1; T0 (before metabolization by enzymes)
Procedure: (§1) For this, the tests were carried out on the degradation media before (T0) and after metabolization by enzymes immobilized on PGMA and DOPA functionalized Kaldnes after 30 min, 1 h and 24 h of contact.
(§2) The tests are performed with the maximum volume of test solution that can be provided and defined by the standards cited earlier. The results are expressed as a percentage of growth inhibition for algae and Daphnia test, as percentage of light emission inhibition for the Microtox test and as percentage of cell viability inhibition for cytotoxicity tests.

[2] = system: Selenastrum capricornutum; assay: Acute toxicity test on microalgae (ISO 8692: 2012), growth inhibition; format: cell-based; details: 90 μg·mL^−1
Procedure: as §1, §2

[3] = Autolysis of antibiotic after 1 hour; format: physicochemical; details: antibiotic 100 μg·ml^−1, deionized water, HEPES 12.5 mM, room temperature
Procedure: (§3) Degradation experiments have been performed, using a concentration of free NDM-1 enzyme of 300 μg·ml^−1 in an aqueous medium comprising deionized water and HEPES 12.5 mM. Antibiotic is added at final concentration of 100 μg·ml^−1 (final volume: 1 mL). Degradation assay are performed under agitation of 100 rpm at room temperature during 1 hour. UV absorbance measurements are achieved to determine the evolution of the concentration of the antibiotics in the medium.

[4] = molecular target: T1, NDM-1 (Klebsiella pneumoniae, UniProt C7C422); format: biochemical, K. pneumoniae; details: free NDM-1 300 μg·ml^−1, antibiotic 100 μg·ml^−1, final volume 1 mL, deionized water, HEPES 12.5 mM, room temperature, 100 rpm
T1 construct: His tag (inferred from the HisTrap FF purification and the pOPINF vector; no tag is printed as such); made in house; host or cells: Escherichia coli BL21 2D3
Procedure: The production of protein performed as described by Green V. L. et al. (Acta Crystallogr. 2011, F67, 1160-1164) with few modifications: An additional step of freezing is added before cell lysis with French press. The NDM-1 isolation and purification are only performed with HisTrap FF column (GE Healthcare). Three washes in Amicon® Ultra-4 Centrifugal Filter Units 3,000 NMWL (1000×g for 15 min) allow to remove excess imidazole. Enzymes are then re-suspended in PBS.
as §3

[5] = system: Daphnia magna Straus; assay: Daphnia acute toxicity test (ISO 6341: 2012); format: in vivo; details: amoxicillin 90 μg·mL^−1; T0 (before metabolization by enzymes)
Procedure: as §1, §2

[6] = system: Vibrio fischeri; details: 0 min, 80 μg·mL^−1
Procedure: as §1, §2

[7] = Degradation of amoxicillin (100 μg/ml) in filtered tap water with HEPES by immobilized or free enzyme, UV absorbance every 24 hours; format: biochemical
Procedure: Once the Kaldnes carriers have been activated according to the above protocol, the enzymatic activity is measured. Two antibiotics present in an aqueous medium have been tested.
A sample of tap water, prealably filtered on a syringe filter unit (disposable pore size of 0.22 μm) and with HEPES (12.5 mM), and the antibiotics at a concentration of 100 μg/ml.
For comparison purposes, degradation of the antibiotic with the free enzyme will be tested. The sample of tap water, prealably filtered on a syringe filter unit (disposable pore size of 0.22 μm) and with HEPES (12.5 mM), and the antibiotics at a concentration of 100 μg·ml^−1, is prepared.
UV absorbance measurements are achieved to determine the evolution of the concentration of the antibiotics. […] The absorbance, and the thus the concentration, is determined every 24 hours.

[8] = Storage of the Kaldnes carriers at 4° C., length of preservation of activity; format: physicochemical
Procedure: The biofunctionalized Kaldnes carriers, after being dried, have been kept in the fridge at 4° C. Antibiotics degradation tests were performed onto the carriers to measure the activity.

[9] = Kaldnes biochips, PGMA based layer, Tween 20 (5%), enzyme 1.985 mg
[10] = Kaldnes biochips, dopamine as layer precursor, no Tween 20, enzyme 1.985 mg
[11] = enzyme in its free form 2 mg, no Tween 20

Molecule: CC1(C)S[C@@H]2[C@H](NC(=O)[C@H](N)c3ccc(O)cc3)C(=O)N2[C@H]1C(=O)O [amoxicillin]
- Percentage of inhibition, Cell Viability Assay [1]: 19 ± 5%
- Percentage of inhibition, Alga test ([2]; 0 min): 55 ± 6%
- Percentage of inhibition, Alga test ([2]; 24 h): 0%
- Autolysis of antibiotic after 1 hour [3]: 0 µg/mL
- degraded amount after 1 hour [4]: 10 ± 2 µg
- Percentage of inhibition, Daphnia Test [5]: 56 ± 4%
- Percentage of inhibition, Microtox [6]: 41 ± 12%

Molecule: CC[C@H](C)[C@H](N)C1=N[C@H](C(=O)N[C@@H](CC(C)C)C(=O)N[C@H](CCC(=O)O)C(=O)N[C@H](C(=O)N[C@H]2CCCCNC(=O)[C@H](CC(N)=O)NC(=O)[C@@H](CC(=O)O)NC(=O)[C@H](Cc3cnc[nH]3)NC(=O)[C@@H](Cc3ccccc3)NC(=O)[C@H]([C@@H](C)CC)NC(=O)[C@@H](CCCN)NC2=O)[C@@H](C)CC)CS1 [bacitracin] ({Ileψ(thiazoline)Cys}-L[dE]IK[dOrn]I[dF]H[dD]N; lactam 4-C)
- Autolysis of antibiotic after 1 hour [3]: 0 µg/mL
- degraded amount after 1 hour [4]: 5 ± 0.8 µg

Molecule: CC[C@H]1OC(=O)[C@H](C)[C@@H](O[C@H]2C[C@@](C)(OC)[C@@H](O)[C@H](C)O2)[C@H](C)[C@@H](O[C@@H]2O[C@H](C)C[C@H](N(C)C)[C@H]2O)[C@](C)(O)C[C@@H](C)C(=O)[C@H](C)[C@@H](O)[C@]1(C)O [erythromycin]
- Autolysis of antibiotic after 1 hour [3]: 0 µg/mL
- degraded amount after 1 hour [4]: 6.8 ± 2.3 µg

Molecule: CCC[C@@H]1C[C@@H](C(=O)N[C@@H]([C@H]2O[C@H](SC)[C@H](O)[C@@H](O)[C@H]2O)[C@@H](C)O)N(C)C1 [lincomycin]
- Autolysis of antibiotic after 1 hour [3]: 0.01 µg/mL
- degraded amount after 1 hour [4]: 5 ± 1.5 µg

Molecule: Cc1cc(NS(=O)(=O)c2ccc(N)cc2)no1 [sulfamethoxazole]
- Autolysis of antibiotic after 1 hour [3]: 0 µg/mL
- degraded amount after 1 hour [4]: 3.2 ± 0.8 µg

Molecule: COc1cc(Cc2cnc(N)nc2N)cc(OC)c1OC [trimethoprime]
- Autolysis of antibiotic after 1 hour [3]: 0.01 µg/mL
- degraded amount after 1 hour [4]: 2.5 ± 0.95 µg

Molecule: CC[C@H]1OC(=O)C[C@@H](O)[C@H](C)[C@@H](O[C@@H]2O[C@H](C)[C@@H](O[C@H]3C[C@@](C)(O)[C@@H](O)[C@H](C)O3)[C@H](N(C)C)[C@H]2O)[C@@H](CC=O)C[C@@H](C)C(=O)/C=C/C(C)=C/[C@@H]1CO[C@@H]1O[C@H](C)[C@@H](O)[C@@H](OC)[C@H]1OC [tylosine]
- Autolysis of antibiotic after 1 hour [3]: 0.01 µg/mL
- degraded amount after 1 hour [4]: 7.4 ± 1.1 µg

B1: NDM-1: New-Dehli metallo-β-lactamase 1, K. pneumoniae gene produced in E. coli BL21 2D3, used free or immobilized on Kaldnes biochips (protein, UniProt C7C422 29-270, looked up)
Metallo-beta-lactamase type 2: GEIRPTIGQQMETGDQRFGDLVFRQLAPNVWQHTSYLDMPGFGAVASNGLIVRDGGRVLVVDTAWTDDQTAQILNWIKQEINLPVALAVVTHAHQDKMGGMDALHAAGIATYANALSNQLAPQEGMVAAQHSLTFAANGWVEPATAPNFGPLKVFYPGPGHTSDNITVGIDGTDIAFGGCLIKDSKAKSLGNLGDADTEHYAASARAFGAAFPKASMIVMSHSAPDSRAAITHTARMADKLR
- Amount of degraded amoxicillin [7, 9]: 3502 ± 191 µg
- Duration of activity [7, 9]: 22 days
- Amount of degraded amoxicillin [7, 10]: 3021 ± 51 µg
- Duration of activity [7, 10]: 10 days
- amount of amoxicillin degraded, immobilized versus free form ([7]; Kaldnes carrier, Table V): about 8 times
- Amount of degraded amoxicillin [7, 11]: 390 ± 45 µg
- Duration of activity [7, 11]: 4 days
- Length of preservation ([8]; stored as Kaldnes + PGMA): 1 month
- Length of preservation ([8]; stored as Kaldnes + PGMA + enzyme): 2 months
- Length of preservation ([8]; stored as Kaldnes + PGMA + enzyme + Tween 20): 2 weeks
- Length of preservation ([8]; stored as Kaldnes + dopamine): 3 weeks
- Length of preservation ([8]; stored as Kaldnes + dopamine + enzyme): 1 month
- Length of preservation ([8]; stored as Kaldnes + dopamine + enzyme + Tween 20): 2 weeks
